# Assay results taken from US20230257385A1, “SALT AND SOLID FORMS OF TABERNANTHALOG” (priority 2021, published 2023).
# Where a name gives a salt, the structure may show the parent alone.
# Assays:
# Assay type in all cases: physicochemical
# [1] = Standing of solid forms over time (form by XRPD)
# Description: FIG. 844 depicts the XRPD profile of Experiment 1-Sample D2 (Tabernanthalog·Sorbate, Form A).
# [2] = Thermal study: glass transition temperature (Tg) of amorphous monofumarate and sorbate
# Method: Each salt was analysed by DSC and TGA to determine the Tg of the amorphous form. Amorphous forms were generated by thermocycling the salt past the melt temperature, cooling the sample, and once cooled the samples were reheated. Open pan and sealed pan DSC were utilised, open pan DSC were heated past the melt event, cooled, and left to stand under ambient conditions overnight.
# Sealed pans were immediately cycled with no time left to stand.
# TGA (open pan) samples were analysed by thermocycle, with no time for the sample to stand under ambient conditions.
# The amorphous forms were generated in these studies and characterised with their Tg being measured.
# A hot stage microscope heating block was used to generate the amorphous phase in-situ, to allow analysis by XRPD. A silicon XRPD sample plate was loaded with the appropriate salt. The plate was heated past the melt event, removed from the hot stage microscope block and cooled to ambient in air and analysed by XRPD to ensure that the amorphous form was generated. The amorphous material was then analysed by ^1H NMR and LC-MS to ensure there was no change in chemical composition.
# Two DSC pans were charge with the appropriate salt (Tabernanthalog·Sorbate, A1270−076-A1 and Tabernanthalog·Monofumarate, Tabernanthalog·Monofumarate), the first DSC pan was not sealed (open pan DSC), the second was sealed (hermetic sealed pan DSC). The open pan DSC was cycled from 20° C. to just after the melt event for each, cooled to −20° C. and left to stand under ambient conditions over night. The open pan DSC was then heated to just before the thermal degradation event (Tabernanthalog·Sorbate ca. 160° C., Tabernanthalog·Monofumarate ca. 210° C.) The hermetic sealed DSC was heated from 20° C. to just after the melt event, cooled to −20° C. then headed to just before the same degradation event.
# Two TGA crucibles were charged with the appropriate salt (Tabemanthalog·Sorbate, A1270-076-A1, Tabernanthalog·Monofumarate, Tabernanthalog·Monofumarate), both were thermocycled from 20° C. to past the melt event and then cooled to −20° C., each pan was then immediately heated to just before the degradation event to measure the Tg event.
# [3] = Amorphous study (freeze drying, evaporation, spray drying, bead milling) of monofumarate and sorbate
# Description: The purpose of this study was to generate amorphous material to be characterized and used in water activity studies. To achieve this, the two salts were exposed to a variety of techniques in attempts to generate the amorphous forms, including freeze drying, evaporation, vacuum desiccation and cryodesiccation spray drying. These techniques were not successful for the two salts Tabernanthalog·Monofumarate and Tabernanthalog·Sorbate.
# Bead milling was attempted to generate the amorphous form of Tabernanthalog·Sorbate (Tabernanthalog·Sorbate, Form A). The salt underwent neat milling and separately with the addition of tetradecafluorohexane (TDFH). The following experiments were performed: Experiment 6-Sample A1 (30 Hz, 2 h), Experiment 6-Sample A2 (30 Hz, 5.5 h) and Experiment 6-Sample A3 (30 Hz 1 h, TDFH), the products from each experiment was analysed by XRPD to determine the extent of crystallinity (FIG. 812). None of the experiments provided amorphous material.
# Each salt was charged to a 7 ml vial (50 mg, 1.0 wt). To the vial containing Tabernanthalog·Monofumarate (Tabernanthalog·Monofumarate), was charged water (10.0 vol), to fully dissolve the sample. Tabernanthalog·Sorbate (A1270-076-A1) was taken-up in ethanol/water (15% v/v, 10 vol), a further charge of water (1.0 ml), was added to ensure that the sample dissolved.
# Vials containing the salt solutions were placed on the freeze drier apparatus overnight, and the cryo-desiccated products were recovered the following morning and analysed by XRPD each product remained crystalline.
# Tabernanthalog·Monofumarate (A1272−082-A2, 51.1 mg, 1.0 wt) was charged to a 7 ml scintillation vial followed by THE (2 ml, […]), the suspension was heated to 50° C., until full dissolution was observed. The vial was stoppered by foil and a pin hole was pierced in the top. The vial was located under a steady N2 stream.
# Tabernanthalog·Sorbate (A1270−076-A1, 99.4 mg, 1.0 wt) was charged to a 7 ml scintillation vial, followed by hexafluoroisopropanol (HFIPA, 5.0 vol, 0.5 ml), after which, the sample fully dissolved. The cap was replaced by foil and pierced on the top. Solvent was allowed to evaporate, to afford a dry, brown solid that was analysed by XRPD yielding crystalline pattern #7. Sample were dried under N2 stream for 5 h and reanalysed by XRPD, remaining as pattern #7
# Tabernanthalog·Sorbate (A1270−076-A1, 50.0 mg, 1.0 wt) was charged to a 7 ml scintillation vial followed by hexafluoroisopropanol (HFIPA, 0.5 ml, 10 vol), to yield a clear solution. The solution was concentrated to dryness, by rotary evaporation, yielding an oil, that was allowed to stand undisturbed overnight.
# Tabernanthalog·Sorbate (A1270−076-A1, 50.0 mg, 1.0 wt) was charged to a 7 ml scintillation vial, followed by methanol (300 μl, 6.0 vol). The solution was clarified by filtration into a 7 ml scintillation vial, containing diethyl ether (1.0 ml, 20.0 vol).
# Tabernanthalog·Sorbate (A1270−076-A1, 102 mg, 1 wt) was charged to a 7.0 ml scintillation vial followed by methanol (1.9 ml, 19.0 vol). The solution was loaded into the spray drier apparatus.
# The procedure yielded a brown powder (30 mg, 30% th.).
# Tabernanthalog·Sorbate (A1270-076-A1, Form A) was charged to a 1.5 ml steel milling-vessel with a single 5 mm ball bearing. The sample was milled for 5.5 h at 30 Hz and yielded an off-white powder, that was analysed by XRPD, no change in crystallinity.
# [4] = Stability assessment at 40° C./75% RH (open vial / double bagged open vial); settings: 4-to-5-week period
# Method: FIG. 62 depicts the XRPD diffractogram overlay of the time point monitoring of 2-A (open vial) at 75% RH at 40° C. Overlay of, from bottom to top, the tabernanthalog monofumarate (Sample Reference 1, t=0), 2-A1 (t=3 h), 2-A2 (t=24 h), 2-A3 (t=48 h), 2-A4 (t=7 days), 2-A5 (t=2 weeks), 2-A6 (t=3 weeks), 2-A7 (t=4 weeks), 2-A8 (t=5 weeks).
# FIG. 63 depicts the XRPD diffractogram overlay of the time point monitoring of 2-B (double bagged open vial) at 75% RH at 40° C. Overlay of, from bottom to top, the tabernanthalog monofumarate salt (Sample Reference 1, t=0), 2-B1 (t=3 h), 2-B2 (t=24 h), 2-B3 (t=48 h), 2-B4 (t=7 days), 2-B5 (t=2 weeks), 2-B6 (t=3 weeks), 2-B7 (t=4 weeks), 2-B8 (t=5 weeks).
# [5] = Qualitative solubility screen of the tabernanthalog monofumarate salt in solvents (Example 5, Experiment Reference 1; Example 2)
# Method: Consistent with Example 1, samples were dissolved in various solvents/solvent systems and cooled to isolate solid material.
# Tabernanthalog fumarate dissolved at 5 vol (200 mg/mL) only at reflux in two solvents, water and methanol. At 15 vol the product dissolved in both refluxing butanol and ethanol. Consistent with Example 1, the dissolved samples were cooled. On cooling, each of the four effective solvents yielded solid material. The solids thus obtained were analyzed by XRPD yielding diffractograms with novel peaks from products isolated from each of the four protic solvents.
# The tabernanthalog monofumarate salt (Pattern #1, Sample Reference 1, 25 mg, 1 wt) was weighed out in 20 separate vials to qualitatively examine the solubility in an array of diverse solvents. […] If insoluble at 5 vol, the solvent quantity was increased to 10 vol, 15 vol and 20 vol of the respective solvent. […] The insoluble suspensions were additionally worked up for XRPD analysis. The resultant powder patterns were subsequently cross-referenced against the input supplied material.
# [6] = Stability examination of supplied monofumarate material at 40° C./75% RH (Example 5, Experiment Reference 2); settings: 75% RH at 40° C., up to 5 w
# [7] = Amorphisation activity: Antisolvent/N2 Flow, 50 mg
# [8] = Amorphisation activity: Freeze dry, 50 mg
# [9] = Amorphisation activity: HFIP Evaporation, 50 mg
# [10] = Amorphisation activity: Milling, 50 or 100 mg
# [11] = Amorphisation activity: Rotary Vac (MeOH), 50 mg
# [12] = Amorphisation activity: Spray drying (15% EtOH/Water), 100 mg
# [13] = Amorphisation activity: Spray drying (MeOH), 100 mg
# [14] = Amorphisation activity: THF/N2, 50 mg
compound,measurement,setting,value
C/C=C/C=C/C(=O)O.COc1ccc2c3c([nH]c2c1)CCN(C)CC3 [Experiment 1-Sample D1],form by XRPD after standing overnight in ambient conditions,"[1]; amorphous input, overnight, ambient conditions",crystalline material
COc1ccc2c3c([nH]c2c1)CCN(C)CC3 [Tabernanthalog•Sorbate],Outcome,"[1]; amorphous Experiment 1-Sample D1 standing overnight, ambient",Crystalline
same,Outcome,"[2]; Hot plate heat up, sorbate 20 to 170 ° C., monofumarate 20 to 210 ° C.",Amorphous
same,Outcome,"[2]; Hot stage plate heat up, sorbate 20 to 170 ° C., monofumarate 20 to 210 ° C.",Amorphous
same,Outcome,"[2]; Open Pan DSC, sorbate 20 to 165 to −20, O/N 20 to 230 ° C., monofumarate 20 to 210 to −20, O/N 20 to 210 ° C.",Amorphous
same,Outcome,"[2]; Sealed DSC, sorbate 20 to 165 to −20 to 230 ° C., monofumarate 20 to 210 to −20 to 210 ° C.",Amorphous
same,Outcome,"[2]; TGA, sorbate 20 to 165 to −20 to 230 ° C., monofumarate 20 to 210 to −20 to 210 ° C.",Amorphous
same,Glass temperature (Tgs),"[2]; amorphous form generated in situ, sealed DSC thermocycle (Sample B1)",22 °C
same,Form by XRPD,[3]; [7],Form A
same,Outcome,[3]; [7],Crystalline
same,Form by XRPD,[3]; [8],Form A
same,Outcome,[3]; [8],Crystalline
same,Form by XRPD,[3]; [9],Pattern #7
same,Outcome,[3]; [9],Crystalline and Gum
same,Form by XRPD,"[3]; Amorphisation activity: Hot Melt Extrusion (Overnight), 250 mg",Form A
same,Form by XRPD,"[3]; Amorphisation activity: Hot Melt Extrusion, 250 mg",Form A
same,Form by XRPD,[3]; [10],Form A
same,Outcome,[3]; [10],Crystalline
same,Form by XRPD,[3]; [11],Form A
same,Outcome,[3]; [11],Crystalline
same,Form by XRPD,[3]; [12],Form A
same,Outcome,[3]; [12],Crystalline
same,Form by XRPD,[3]; [13],Form A
same,Outcome,[3]; [13],Crystalline
same,Form by XRPD,[3]; [14],Form A
same,Outcome,[3]; [14],Crystalline
COc1ccc2c3c([nH]c2c1)CCN(C)CC3 [tabernanthalog monofumarate Pattern #1],stability assessment,[4],"no evidence for hydrate formation, chemical degradation or disproportionation"
"COc1ccc2c3c([nH]c2c1)CCN(C)CC3 [tabernanthalog monofumarate salt, 8-methoxy-3-methyl-1H,2H,3H,4H,5H,6H-azepino[4,5-b]indole fumarate]",solubility in common solvents,[5]; variety of solvents,sparingly soluble in most of the common solvents investigated
same,solubility,"[5]; water, methanol (two separate solvents), water, thermodynamic from solid, reflux, read-out: soluble in methanol/water at reflux",≥ 200 mg/mL
same,physical and chemical stability,"[6]; open vial and double polyethene bagged, XRPD, HPLC, TGA, DSC, fumarate",physically and chemically stable
same,change in chemical purity (HPLC),[6],did not show significant changes in chemical purity
